Test results reported in article PMC9023544, “Ketone-selenoesters as potential anticancer and multidrug resistance modulation agents in 2D and 3D ovarian and breast cancer in vitro models” (Scientific Reports, 2022).
Structures can show the parent of a compound that is named as a salt. Where two headings read alike, the source gives them in different places.

How the values were obtained:
[1] = tested on: HOC/ADR (sub-line resistant to Adriamycin, A2780/ADR); test: Cytotoxic activity, 2D, resazurin, 72 h; format: cell-based, human; conditions: for IC50 / IC10: Homo sapiens, A2780 ADR, 72 h; for IC50: 2D, mean ± SEM, n=3, read-out: HOC/ADR IC50; for IC10: HOC/ADR, concentration that should not decrease viability under 90%, read-out: IC10 of compounds; for SI HEK293/HOC/ADR: IC50 HEK293 / IC50 HOC/ADR; for CS (collateral sensitivity index): IC50 HOC / IC50 HOC/ADR
Experimental: (§1) The cytotoxic potential of selenoesters was tested on several cancer cell lines—HOC (human parental ovarian adenocarcinoma, HOC, A2780, Sigma-Aldrich), HOC/ADR (sub-line resistant to Adriamycin, A2780/ADR, Sigma-Aldrich), MCF-7 (human breast adenocarcinoma, ATCC®, HTB-22TM), MCF-7/PAX (resistant sub-line established by gradual adaptation of parental cells to increased concentration of paclitaxel; kindly provided by Division of Cell and Molecular Biology, Third Faculty of Medicine, Charles University, Czech Republic) and on one non-cancerous cell line—HEK293 (human embryonic kidney cell line, Leibniz Institute, DSMZ-German Collection of Microorganisms and Cell Cultures GmbH). All mentioned cell lines were authenticated using short tandem repeat (STR) profiling. Cell lines were cultivated in DMEM medium (10% FBS, 1× antibiotic antimycotic solution), except for HEK293 cell line which was cultivated without antibiotics. In case of the resistant cell lines, the medium was supplemented with a required concentration of cytostatics to maintain resistance (HOC/ADR—100 nM Adriamycin; MCF-7/PAX—300 nM paclitaxel). All cells were cultivated in a CO2 incubator (5% CO2, 37 °C, Thermo Fisher Scientific).
(§2) For the experiment, the cells at passage number 5–20 were seeded at a 1 × 10^5 cells/mL concentration into 96-well plates to 100 µL final volume. The final concentration range of the compounds was 0.63–20 µM. After an incubation of 72 h, the plates were washed 1× with PBS and resazurin solution (0.03 mg/mL in 1× PBS) was added. After 1 h of incubation, the fluorescence signal was recorded (ex./em. 560/590 nm).
(§3) The selectivity index (SI) was determined as the ratio of IC50 value for the non-cancerous cells to IC50 for the cancer cell line. For resistant cell lines, the collateral sensitivity (CS) was calculated as the ratio of IC50 value in sensitive tumour cells to IC50 in the resistant cancer cell line. In both cases, the selectivity is considered as: (1) strongly selective when SI or CS value is above 6, (2) moderately selective when SI or CS is between 3 and 6, (3) slightly selective when SI or CS is between 1 and 3 and (4) non-selective when SI or CS is less than 1[23].

[2] = tested on: HOC (human parental ovarian adenocarcinoma, A2780); test: Cytotoxic activity, 2D, resazurin, 72 h; format: cell-based; conditions: for IC50: 2D, 72 h, mean ± SEM, n=3, read-out: HOC IC50; for SI HEK293/HOC: IC50 HEK293 / IC50 HOC
Experimental: as §1, §2, §3

HOC/ADR = test: Sensitization of MDR cell line to Adriamycin; format: cell-based, human; conditions: for Fold change: IC50 of Adriamycin / IC50 of Adriamycin with IC10 dose of compound; for increase of the IC50 of Adriamycin: IC10 dose of compound
Experimental: To determine the sensitization potential of compounds, HOC/ADR and MCF-7/PAX were used. Based on the cytotoxic potential of the compounds against several cancer and non-cancerous cell lines (Table 1), the concentrations of applied compounds were adjusted. IC10 values was considered as the concentrations, which should not decrease the cell viability under 90%. After the addition of compounds, Adriamycin (concentration range 0.1–20 µM) and paclitaxel (concentration range 0.1–10 µM) were added to HOC/ADR and MCF-7/PAX, respectively. The sensitization potential of the compounds was determined as the ratio of the IC50 of cytostatic agent (Adriamycin/paclitaxel) to the IC50 of cytostatic agent affected by the compound in concentration corresponding to the IC10 value. Fold change greater than 1 indicated synergic effect of cytostatic agent and the tested compound.
After that, the plates were washed 1× with PBS and fresh DMEM medium supplemented with tested compounds at final concentration corresponding their IC10 value was added, except for positive control wells. Subsequently, Adriamycin (concentration range 0.1–20 µM) or paclitaxel (concentration range 0.1–10 µM) was added to the appropriate cell line for 72 h. After incubation, the cells were washed 1× with PBS and the resazurin solution (0.03 mg/mL) was added to evaluate the cell viability as described above. IC50 values of cytostatics were calculated for both the control and compounds; a fold change was counted up. When this fold change is higher than 1 indicates a synergism between the tested cytostatic agent and the compound, while a fold change lower than 1 means an antagonism. Fold change=IC50value of cytostatic treated cells only/IC50value of cytostatic treated cells in addition of the compound

[3] = tested on: MCF-7/PAX (paclitaxel-resistant sub-line); test: Cytotoxic activity, 2D, resazurin, 72 h; format: cell-based, human; conditions: for IC50: Homo sapiens, MCF7, 2D, 72 h, mean ± SEM, n=3, read-out: MCF-7/PAX IC50; for SI HEK293/MC7-7/PAX: IC50 HEK293 / IC50 MCF-7/PAX; for CS (collateral sensitivity index): IC50 MCF-7 / IC50 MCF-7/PAX
Experimental: as §1, §2, §3

[4] = tested on: HEK293 (human embryonic kidney cell line); test: Cytotoxic activity, non-cancerous cell line, resazurin, 72 h; format: cell-based; conditions: Homo sapiens, HEK293; 72 h, mean ± SEM, n=3
Experimental: as §1, §2, §3

[5] = tested on: MCF-7 (human breast adenocarcinoma); test: Cytotoxic activity, 2D, resazurin, 72 h; format: cell-based; conditions: for IC50: Homo sapiens, MCF7, 2D, 72 h, mean ± SEM, n=3, read-out: MCF-7 IC50; for SI HEK293/MCF-7: IC50 HEK293 / IC50 MCF-7
Experimental: as §1, §2, §3

Row | SMILES | IC50 [1] | IC50 ([2]; Homo sapiens, A2780, 72 h) | IC50 (HOC/ADR; Homo sapiens, Adriamycin 0.1–20 µM with IC10 dose of compound, 72 h, ADR row = Adriamycin alone) | IC50 [3] | SI HEK293/MC7-7/PAX [3] | CS (collateral sensitivity index) [3] | IC10 [1] | SI HEK293/HOC/ADR [1] | CS (collateral sensitivity index) [1] | IC50 [4] | IC50 [5] | SI HEK293/MCF-7 [5] | IC50 [2] | SI HEK293/HOC [2] | Fold change (HOC/ADR) | increase of the IC50 of Adriamycin (HOC/ADR) | collateral sensitivity against paclitaxel-resistant breast carcinoma (in words) [3] | collateral sensitivity against HOC/ADR (in words) [1]
1 | COc1cccc2c1C(=O)c1c(O)c3c(c(O)c1C2=O)C[C@@](O)(C(=O)CO)C[C@@H]3O[C@H]1C[C@H](N)[C@H](O)[C@H](C)O1 [ADR, doxorubicin hydrochloride, reference compound] | 2.5 µM | 0.01 µM | 2.5 µM | – | – | – | – | – | – | – | – | – | – | – | – | – | – | –
2 | CC(=O)C[Se]C(=O)c1cccs1 [K1] | 2.3 µM | < 1 µM | – | 2.2 ± 0.2 µM | 0.4 ± 0.0 | 0.7 ± 0.1 | 1.5 µM | 0.4 ± 0.0 | 0.4 ± 0.0 | 1 ± 0.1 µM | 1.6 ± 0.1 µM | 0.6 ± 0.1 | 0.8 µM | 1.2 ± 0.1 | (1.3 ± 0.1)× | – | – | –
3 | CC(=O)C[Se]C(=O)c1ccccc1F [K2] | 2.4 ± 0.1 µM | < 1 µM | – | 1.9 ± 0.1 µM | 0.6 ± 0.1 | 1.0 ± 0.1 | 1 µM | 0.5 ± 0.0 | 0.3 ± 0.0 | 1.2 ± 0.1 µM | 1.9 ± 0.1 µM | 0.7 ± 0.1 | 0.8 ± 0.1 µM | 1.6 ± 0.1 | (1.2 ± 0.0)× | – | – | –
4 | CC(=O)C[Se]C(=O)c1cccc(C(F)(F)F)c1 [K5] | 2.2 ± 0.3 µM | 1.1 µM | – | 2.8 ± 0.1 µM | 0.6 ± 0.0 | 0.6 ± 0.1 | 1.5 µM | 0.7 ± 0.1 | 0.5 ± 0.1 | 1.6 µM | 1.6 ± 0.1 µM | 1.0 ± 0.1 | – | 1.5 ± 0.0 | (0.5 ± 0.1)× | almost twofold | – | –
5 | CC(=O)C[Se]C(=O)c1ccc(F)c(Cl)c1 [K6] | 2.6 ± 0.1 µM | < 1 µM | – | 2.3 ± 0.3 µM | 0.9 ± 0.1 | 0.9 ± 0.1 | 1.3 µM | 0.8 ± 0.1 | 0.3 ± 0.0 | 2 ± 0.1 µM | 2.1 ± 0.2 µM | 0.9 ± 0.2 | 0.7 ± 0.1 µM | 2.7 ± 0.4 | (1.1 ± 0.1)× | – | – | –
6 | CC(=O)C[Se]C(=O)c1cc(F)c(F)cc1F [K8] | 2.7 µM | 2.1 ± 0.1 µM | – | 2 ± 0.1 µM | 1.0 ± 0.2 | 1.3 ± 0.3 | 3 µM | 0.7 ± 0.0 | 0.8 ± 0.1 | 2 ± 0.2 µM | 2.6 ± 0.4 µM | 0.8 ± 0.1 | – | 0.9 ± 0.1 | (1.1 ± 0.1)× | – | slight collateral sensitivity | –
7 | N#CC[Se]C(=O)c1cccs1 [N1] | 4.2 ± 0.2 µM | 2.7 ± 0.3 µM | – | 2.5 µM | 2.4 ± 0.4 | 1.2 ± 0.2 | 2.5 µM | 1.4 ± 0.2 | 0.7 ± 0.1 | 6 ± 0.6 µM | 3.1 ± 0.2 µM | 2.0 ± 0.3 | – | 2.2 ± 0.4 | (0.3 ± 0.1)× | 3.5 fold | slight collateral sensitivity | –
8 | N#CC[Se]C(=O)c1cccc(F)c1 [N2] | 4.7 ± 0.1 µM | 7.1 ± 0.2 µM | – | 2.5 ± 0.3 µM | 3.1 ± 0.2 | 1.0 ± 0.1 | 3 µM | 1.7 ± 0.1 | 1.5 ± 0.1 | 7.8 ± 0.2 µM | 2.6 ± 0.1 µM | 3.0 ± 0.2 | – | 1.1 ± 0.1 | (1.2 ± 0.1)× | – | – | slight collateral sensitivity
9 | N#CC[Se]C(=O)c1ccc(Br)cc1 [N3] | 5.2 ± 0.1 µM | 6.5 ± 0.3 µM | – | 2.7 ± 0.2 µM | 3.0 ± 0.6 | 0.9 ± 0.3 | 3.1 µM | 1.5 ± 0.1 | 1.3 ± 0.1 | 8 ± 0.3 µM | 2.3 ± 0.5 µM | 3.5 ± 0.9 | – | 1.2 ± 0.1 | (1.3 ± 0.0)× | – | – | slight collateral sensitivity
10 | N#CC[Se]C(=O)c1ccccc1C(F)(F)F [N4] | 3.7 ± 0.2 µM | 2.4 ± 0.1 µM | – | 2.4 ± 0.2 µM | 2.1 ± 0.2 | 0.9 ± 0.1 | 2.4 µM | 1.4 ± 0.1 | 0.6 ± 0.1 | 5.2 ± 0.3 µM | 2.1 ± 0.1 µM | 2.5 ± 0.2 | – | 2.2 ± 0.2 | (1.3 ± 0.1)× | – | – | –
11 | N#CC[Se]C(=O)c1cccc(C(F)(F)F)c1 [N5] | 4.5 ± 0.2 µM | 2.3 ± 0.1 µM | – | 2.7 ± 0.2 µM | 2.3 ± 0.2 | 0.9 ± 0.2 | 2.5 µM | 1.3 ± 0.1 | 0.5 ± 0.1 | 6 ± 0.2 µM | 2.5 ± 0.2 µM | 2.4 ± 0.3 | – | 2.7 ± 0.2 | (1.2 ± 0.2)× | – | – | –
12 | N#CC[Se]C(=O)c1ccc(F)c(Cl)c1 [N6] | 3.6 µM | 2.4 ± 0.2 µM | – | 1.9 ± 0.1 µM | 2.6 ± 0.1 | 0.9 ± 0.0 | 2.6 µM | 1.4 ± 0.0 | 0.7 ± 0.1 | 4.9 ± 0.1 µM | 1.7 µM | 2.9 ± 0.1 | – | 2.1 ± 0.2 | (0.4 ± 0.0)× | almost threefold | – | –
13 | CC(=O)O[C@H]1C(=O)[C@@]2(C)[C@H]([C@H](OC(=O)c3ccccc3)[C@]3(O)C[C@H](OC(=O)[C@H](O)[C@@H](NC(=O)c4ccccc4)c4ccccc4)C(C)=C1C3(C)C)[C@]1(OC(C)=O)CO[C@@H]1C[C@@H]2O [PAX, paclitaxel, reference compound] | – | – | – | 1.5 µM | – | – | – | – | – | – | 0.03 µM | – | – | – | – | – | – | –
